In patent US6737383B1, “Herbicidal oxadiazolidines” (priority 1999, dated 2004):

Legend:
pigweed = experiment: Test B pre/postemergence pigweed; assay type: in vivo, Amaranthus retroflexus; details: for Redroot pigweed plant response rating (0 to 10 scale): 0 is no effect
How it was run: (§1)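 Response is a visual 0-to-10 score relative to untreated plants, where 0 means no effect and 10 means complete control, taken twelve to sixteen days after application. Treatments went onto soil at planting and onto foliage of 1- to 4-leaf plants, using a surfactant-containing non-phytotoxic solvent.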

sugar beet = experiment: Test B pre/postemergence sugar beet; assay type: in vivo, Beta vulgaris; details: for Sugarbeets plant response rating (0 to 10 scale): 0 is no effect
How it was run: as §1

purple nutsedge = experiment: Test B pre/postemergence purple nutsedge; assay type: in vivo, Cyperus rotundus; details: for Nutsedge plant response rating (0 to 10 scale): 0 is no effect
How it was run: as §1

rice = experiment: Test B flood test rice; assay type: in vivo, Oryza sativa
How it was run: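 Each value is a visual injury score relative to controls, with 10 meaning complete control and 0 no effect. Evaluation took place twelve to sixteen days after the 2-leaf-stage plants were treated and kept in the greenhouse.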

[1] = Preemergence, Rate 62 g/ha, scale of 0 to 10 where 0 is no effect and 10 is complete control
[2] = Preemergence, Rate 125 g/ha, 10 is complete control
[3] = Preemergence, Rate 250 g/ha, scale 0 to 10, 0 is no effect, 10 is complete control
[4] = Preemergence, Rate 500 g/ha, scale 0 to 10 (0 no effect, 10 complete control)
[5] = Rate 62 g/ha, Postemergence, scale of 0 to 10 where 0 is no effect and 10 is complete control
[6] = Rate 125 g/ha, Postemergence, scale 0 to 10
[7] = Rate 500 g/ha, Postemergence, scale 0 to 10
[8] = Rate 62 g/ha, headed Pre-emergence (flood test species), scale 0 to 10 (0 no effect, 10 complete control)
[9] = Rate 125 g/ha, Pre-emergence, flood test species, scale 0 to 10 where 0 is no effect and 10 is complete control
[10] = Rate 250 g/ha, Pre-emergence, flood-test species, scale 0 to 10, 0 is no effect, 10 is complete control
[11] = Rate 500 g/ha, headed Pre-emergence (flood test species), scale 0 to 10 (0 no effect, 10 complete control)
[12] = Preemergence, Rate 500 g/ha, scale of 0 to 10 where 0 is no effect and 10 is complete control
[13] = Preemergence, Rate 250 g/ha, scale of 0 to 10 where 0 is no effect and 10 is complete control
[14] = Rate 125 g/ha, Preemergence, scale of 0 to 10 where 0 is no effect and 10 is complete control
[15] = Rate 500 g/ha, Postemergence, scale 0 to 10, 0 no effect, 10 complete control

Compound | Redroot pigweed plant response rating (pigweed; [1]) | Redroot pigweed plant response rating (0 to 10 scale) (pigweed; [2]) | Redroot pigweed plant response rating (pigweed; [3]) | Redroot pigweed plant response rating (pigweed; [5]) | Redroot pigweed plant response rating (pigweed; [6]) | Plant response rating (0 to 10; 0 is no effect, 10 is complete control), Redroot pigweed (pigweed; Rate 250 g/ha, Postemergence) | Redroot pigweed plant response rating (pigweed; [7]) | Sugarbeets plant response rating (sugar beet; [1]) | Sugarbeets plant response rating (0 to 10 scale) (sugar beet; [2]) | Sugarbeets plant response rating (sugar beet; [3]) | Sugarbeets plant response rating (sugar beet; [5]) | Sugarbeets plant response rating (sugar beet; [6]) | Plant response rating (0 to 10; 0 is no effect, 10 is complete control), Sugarbeets (sugar beet; Rate 250 g/ha, Postemergence) | Nutsedge plant response rating (purple nutsedge; [1]) | Nutsedge plant response rating (purple nutsedge; [5]) | Nutsedge plant response rating (purple nutsedge; [6]) | Plant response rating (0 to 10; 0 is no effect, 10 is complete control), Nutsedge (purple nutsedge; Rate 250 g/ha, Postemergence) | Rice plant response rating (rice; [8]) | Rice plant response rating (rice; [9]) | Rice plant response rating (rice; [10]) | also measured
CCN(Cc1ccncc1)C(=O)n1oc(=O)n(C(C)C)c1=O [Compound 189] | 0 | 0 | 0 | 0 | 0 | 0 | 0 | 0 | 0 | 0 | 0 | 0 | 0 | 0 | 0 | 0 | 0 | 0 | 0 | 0 | Redroot pigweed plant response rating (pigweed; [4]): 0; Sugarbeets plant response rating (sugar beet; [4]): 0; Sugarbeets plant response rating (sugar beet; [7]): 0; Nutsedge plant response rating (0 to 10 scale) (purple nutsedge; [2]): 0; Nutsedge plant response rating (purple nutsedge; [3]): 0; Nutsedge plant response rating (purple nutsedge; [4]): 0; Nutsedge plant response rating (purple nutsedge; [7]): 0; Plant response rating, Rice (rice; [11]): 0
CCN(C(=O)n1oc(=O)n(C(C)C)c1=O)c1nncs1 [Compound 190] | 0 | 0 | 0 | 0 | 0 | 0 | 0 | 0 | 0 | 0 | 0 | 0 | 0 | 0 | 0 | 0 | 0 | 0 | 0 | 0 | Redroot pigweed plant response rating (pigweed; [4]): 0; Sugarbeets plant response rating (sugar beet; [4]): 0; Sugarbeets plant response rating (sugar beet; [7]): 0; Nutsedge plant response rating (purple nutsedge; [3]): 0; Nutsedge plant response rating (purple nutsedge; [4]): 0; Nutsedge plant response rating (purple nutsedge; [7]): 0; Plant response rating, Rice (rice; [11]): 0
Cc1nc(C)c(-n2c(=O)on(C(=O)N(c3ccc(Cl)cc3)C(C)C)c2=O)s1 [Compound 196] | 0 | 0 | 0 | 0 | 0 | 0 | 0 | 0 | 0 | 0 | 0 | 0 | 0 | 0 | 0 | 0 | 0 | 0 | 0 | 0 | Plant response rating, Redroot pigweed (pigweed; [12]): 0; Plant response rating, Sugarbeets (sugar beet; [12]): 0; Sugarbeets plant response rating (sugar beet; [7]): 0; Nutsedge plant response rating (0 to 10 scale) (purple nutsedge; [2]): 0; Nutsedge plant response rating (purple nutsedge; [3]): 0; Plant response rating, Nutsedge (purple nutsedge; [12]): 0; Nutsedge plant response rating (purple nutsedge; [7]): 0; Rice plant response rating (rice; Rate 31 g/ha, Pre-emergence section (flood test species), scale 0 to 10): 0; Plant response rating, Rice (rice; [11]): 0
Cc1nc(C)c(-n2c(=O)on(C(=O)N(c3ccccc3)C(C)C)c2=O)s1 [Compound 197] | 0 | 0 | 0 | 0 | 0 | 0 | 0 | 0 | 0 | 0 | 0 | 0 | 0 | 0 | 0 | 0 | 0 | 0 | 0 | 0 | Plant response rating, Redroot pigweed (pigweed; [12]): 0; Plant response rating, Sugarbeets (sugar beet; [12]): 0; Sugarbeets plant response rating (sugar beet; [7]): 0; Nutsedge plant response rating (0 to 10 scale) (purple nutsedge; [2]): 0; Nutsedge plant response rating (purple nutsedge; [3]): 0; Plant response rating, Nutsedge (purple nutsedge; [12]): 0; Nutsedge plant response rating (purple nutsedge; [7]): 0; Plant response rating, Rice (rice; [11]): 0
CCN(C(=O)n1oc(=O)n(C)c1=O)C1CCCCC1 [Compound 228] | 0 |  |  | 0 | 0 | 0 |  | 0 |  |  | 0 | 0 | 3 | 0 | 0 | 0 | 0 | 0 | 0 | 0 | Redroot pigweed plant response rating (pigweed; [13]): 0; Plant response rating, Redroot pigweed (pigweed; [12]): 0; Redroot pigweed plant response rating (pigweed; [14]): 0; Redroot pigweed plant response rating (pigweed; [15]): 2; Sugarbeets plant response rating (sugar beet; [13]): 0; Plant response rating, Sugarbeets (sugar beet; [12]): 0; Sugarbeets plant response rating (sugar beet; [14]): 0; Sugarbeets plant response rating (sugar beet; [15]): 4; Nutsedge plant response rating (purple nutsedge; [13]): 0; Plant response rating, Nutsedge (purple nutsedge; [12]): 0; Nutsedge plant response rating (purple nutsedge; [14]): 0; Nutsedge plant response rating (purple nutsedge; [15]): 0; Rice plant response rating (rice; Rate 500 g/ha, Pre-emergence, flood test species, scale 0 to 10 (0 no effect, 10 complete control)): 0
